In brackets after ≈: the same amount, converted by molar mass. Each block holds one compound with its values, some of them ahead of it. Numbered stars: 1 amine (or outer) side, 2 acyl side, 3 side chain; on linkers, the order of the positions; unused ones are H or OH. Bridge positions count the residues as written; N and C are the ends. Square brackets hold non-standard residues; d marks the D form. Peptide text beside a SMILES is read from it. * marks the point of attachment. Orn(4R-OH,5R-OH) = O=C([C@H](C[C@@H](O)[C@@H](O)N[*:3])N[*:1])[*:2]; Tetradecanoyl(10R,12S-Me2) = CC[C@H](C)C[C@H](C)CCCCCCCCC(=O)*; hTyr(3S-OH,4S-OH) = N[C@H](C(=O)O)[C@H](O)[C@@H](O)c1ccc(O)cc1; Gln(3R-OH) = NC(=O)C[C@@H](O)[C@H](N)C(=O)O; Pro(3S-OH) = O=C(O)[C@H]1NCC[C@@H]1O; Hyp = O=C(O)[C@@H]1C[C@@H](O)CN1
Assays:
Candida albicans [1] = assay: Antifungal activity against Candida albicans GS; assay type: functional, organism-based
Candida albicans [2] = assay: Fungicidal activity against Candida albicans; assay type: functional
[3] = Aqueous stability of the compound assessed as acid-catalyzed decomposition by measuring rate constant; assay type: physicochemical; conditions: buffer
[4] = Oral bioavailability in human; assay type: ADME, organism-based; conditions: in vivo
[5] = system: Human immunodeficiency virus 1; assay: microbe, parasite or virus in culture; conditions: Human immunodeficiency virus 1, LAV
[6] = Inhibition of Leukotriene B4 production in human blood Polymorphonuclear neutrophil cells; assay type: functional, tissue-based
[7] = Cmax in rat plasma at 20 mg/kg, po; assay type: ADME, organism-based; set-up: dose 20 mg/kg, route po
[8] = Oral bioavailability in rat; assay type: ADME, organism-based; conditions: in vivo
[9] = Stability of the compound at pH 8 assessed as compound hydrolysis by measuring half-life; assay type: physicochemical; conditions: buffer
[10] = target: T1, Neutrophil elastase (Homo sapiens) (UniProt P08246); assay: Time-dependent inhibition of human leukocyte elastase assessed as observed binding constant
T1 sequence (whole entry): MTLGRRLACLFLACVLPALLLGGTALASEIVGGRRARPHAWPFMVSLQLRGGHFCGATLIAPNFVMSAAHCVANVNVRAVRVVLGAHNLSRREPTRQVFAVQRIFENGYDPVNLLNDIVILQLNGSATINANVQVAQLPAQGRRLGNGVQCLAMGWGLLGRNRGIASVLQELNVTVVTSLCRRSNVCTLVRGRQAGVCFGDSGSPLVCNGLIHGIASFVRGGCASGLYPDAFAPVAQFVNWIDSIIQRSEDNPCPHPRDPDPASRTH

Escherichia coli [11] = assay: Inhibition of Escherichia coli beta-lactamase at 1 uM relative to control
Pasteurella multocida = assay: Antibacterial activity against Pasteurella multocida 59A0067 assessed as inhibition of bacterial growth by microdilution method; assay type: functional
Escherichia coli [12] = assay: Antibacterial activity against Escherichia coli 51A0150 assessed as inhibition of bacterial growth by microdilution method; assay type: functional
Staphylococcus aureus = assay: Antibacterial activity against Staphylococcus aureus 01A0785 assessed as inhibition of bacterial growth by microdilution method; assay type: functional
[13] = target: Human immunodeficiency virus type 1 protease (Human immunodeficiency virus 1, UniProt Q72874); assay: Inhibition of HIV-1 protease
[14] = Oral bioavailability in dog; assay type: ADME, organism-based, Canis lupus familiaris; conditions: in vivo
[15] = Stability of the compound at pH 1 assessed as half-life; assay type: physicochemical; conditions: buffer
[16] = Stability of the compound assessed as acid hydrolysis by measuring half-life; assay type: physicochemical
[17] = Stability of the compound in 20% aqueous dioxane solution at 30 degreeC assessed as compound hydrolysis by measuring rate constant; assay type: physicochemical; conditions: buffer
Hepatitis C virus = assay: Antiviral activity against Hepatitis C virus genotype 1a harboring NS5A Y93H mutant; assay type: functional, organism-based, Hepacivirus hominis
[18] = Aqueous solubility of compound; assay type: physicochemical; conditions: aqueous (not further specified)
Mus musculus = assay: Antiinflammatory activity in LPS-induced Balb/c mouse model assessed as reduction in TNF-alpha release administered orally for 30 mins followed by LPS-stimulation and measured after 90 mins by ELISA analysis; assay type: functional; conditions: 2 h, route po, time 120 min
[19] = Oral bioavailability in monkey; assay type: ADME, organism-based, Macaca mulatta; conditions: rhesus monkey, in vivo
[20] = Inhibition of Calcium channel (unknown origin); set-up: species or system Homo sapiens

K [3]: 0.778 min⁻¹
Structure (SMILES): COc1ccc(C2OCCS2)cc1 (configuration not stated)

IC50 [6]: 3 nM | Cmax [7]: 2.5 µM | bioavailability [8]: 10%
Structure (SMILES): N#Cc1cc(-c2ccoc2)c2ccc(OCc3cccc(C4(O)CC5COC(C4)O5)c3)cc2c1 (configuration not stated)

half-life [9]: > 80 h | K [10]: 2 10^3/M/s
Structure (SMILES): CC[C@@H]1C(=O)N(C(=O)NCc2ccccc2)[C@H]1Oc1ccc(C(=O)O)cc1

K [3]: 0.00978 min⁻¹
Structure (SMILES): Clc1ccc(C2OCCS2)cc1 (configuration not stated)

K [3]: 0.00048 min⁻¹
Structure (SMILES): O=[N+]([O-])c1ccc(C2OCCS2)cc1 (configuration not stated)

bioavailability [14]: 73% | Cmax [7]: 5 µM | bioavailability [8]: 26%
Structure (SMILES): N#Cc1cc(-c2ccoc2)c2ccc(OCc3cccc(C4(O)CC5COC(C4)O5)n3)cc2c1 (configuration not stated)

K [17]: 4.3 10^-1/M/s
Structure (SMILES): CCOC(OCC)(c1ccccc1)c1ccccc1

K [17]: 3.3 10^-3/M/s
Structure (SMILES): Clc1ccc(C2(c3ccc(Cl)cc3)OCCO2)cc1

K [17]: 1.7 10^-1/M/s
Structure (SMILES): Cc1ccc(C2(c3ccc(C)cc3)OCCO2)cc1

IC50 [20]: > 1000 nM
Structure (SMILES): C[C@@H](O[C@H]1OCCN(Cc2n[nH]c(=O)[nH]2)[C@H]1c1ccc(F)cc1)c1cc(C(F)(F)F)cc(C(F)(F)F)c1 [APREPITANT]

The remaining lines, values behind:

Structure (SMILES): CC[C@H](C)C[C@H](C)CCCCCCCCC(=O)N[C@H]1C[C@@H](O)[C@@H](O)NC(=O)[C@@H]2[C@@H](O)CCN2C(=O)[C@H]([C@H](O)CC(N)=O)NC(=O)[C@H]([C@H](O)[C@@H](O)c2ccc(O)cc2)NC(=O)[C@@H]2C[C@@H](O)CN2C(=O)[C@H]([C@@H](C)O)NC1=O ({Tetradecanoyl(10R,12S-Me2)}-[Orn(4R-OH,5R-OH)]T[Hyp][hTyr(3S-OH,4S-OH)][Gln(3R-OH)][Pro(3S-OH)]; lactam 1-C)
IC50 (Candida albicans [1]): 70 nM | MFC (Candida albicans [2]): 0.25 µg/mL (≈ 0.235 µM)

Structure (SMILES): Nc1nc(=O)n([C@@H]2CS[C@H](CO)O2)cc1F [EMTRICITABINE]
bioavailability [4]: 60% | EC50 [5]: 8 nM

Structure (SMILES): CC1(C)[C@H](C(=O)O)N2C(=O)/C(=C/c3ccccc3)[C@H]2S1(=O)=O
inhibition (Escherichia coli [11]): 28%

Structure (SMILES): CC[C@H]1OC(=O)[C@H](C)[C@@H](O[C@H]2C[C@@](C)(OC)[C@@H](O)[C@H](C)O2)[C@H](C)[C@@H](O[C@@H]2O[C@H](C)C[C@H](N(C)C)[C@H]2O)[C@](C)(O)C[C@@H](C)CN(C)[C@H](C)[C@@H](O)[C@]1(C)O [AZITHROMYCIN]
MIC (Pasteurella multocida): 0.1 µg/mL (≈ 0.134 µM) | MIC (Escherichia coli [12]): 1.56 µg/mL (≈ 2.08 µM) | MIC (Staphylococcus aureus): 0.2 µg/mL (≈ 0.267 µM)

Structure (SMILES): CC(C)(C)NC(=O)[C@@H]1C[C@@H]2CCCC[C@@H]2CN1C[C@@H](O)[C@H](Cc1ccccc1)NC(=O)O[C@H]1CC[C@H]2OCC[C@@H]12
IC50 [13]: 17 nM

Structure (SMILES): CC(C)(C)NC(=O)[C@@H]1C[C@@H]2CCCC[C@@H]2CN1C[C@@H](O)[C@H](Cc1ccccc1)NC(=O)O[C@H]1CO[C@H]2CCC[C@H]21
IC50 [13]: 190 nM

Structure (SMILES): Cc1cn([C@H]2C=C[C@@H](CO)O2)c(=O)[nH]c1=O [STAVUDINE]
half-life [15]: 26 h

Structure (SMILES): O=c1[nH]cnc2c1ncn2[C@@H]1O[C@H](CO)C[C@@H]1F
half-life [16]: > 1 min

Structure (SMILES): COC(=O)N[C@H](C(=O)N1CCC[C@H]1c1ncc(-c2ccc3c(c2)OCn2c-3cc3cc(-c4cnc([C@@H]5CCCN5C(=O)[C@@H](NC(=O)OC)C(C)C)[nH]4)ccc32)[nH]1)C(C)C
EC50 (Hepatitis C virus): 5 nM

Structure (SMILES): O=C1CCC2(CC1)OOC1(O2)C2CC3CC(C2)CC1C3 (configuration not stated)
solubility [18]: < 1 µg/mL | bioavailability [8]: < 1%

Structure (SMILES): CC1(C)[C@H](C(=O)O)N2C(=O)/C(=C/c3ccccn3)[C@H]2S1(=O)=O
inhibition (Escherichia coli [11]): 100%

Structure (SMILES): C[S+]([O-])c1ccc(-c2nc(-c3ccncc3)c(-c3ccc(F)cc3)[nH]2)cc1 (configuration not stated) [SB-203580]
ED50 (Mus musculus): 10 mg/kg | bioavailability [8]: 10%

Structure (SMILES): Nc1ncnc2c1ncn2[C@@H]1O[C@H](CO)C[C@@H]1F [LODENOSINE]
half-life [16]: > 1 min

Structure (SMILES): COC(=O)N[C@H](C(=O)N1CCC[C@H]1c1nc(-c2ccc3c(c2)O[C@@H](c2ccccc2)n2c-3cc3cc(-c4c[nH]c([C@@H]5CCCN5C(=O)[C@@H](NC(=O)OC)C(C)C)n4)ccc32)c[nH]1)C(C)C [ELBASVIR]
bioavailability [4]: 32% | bioavailability [14]: 35% | EC50 (Hepatitis C virus): 2.4 nM | bioavailability [19]: 17% | bioavailability [8]: 9%

Structure (SMILES): COC(=O)N[C@H](C(=O)N1CCC[C@H]1c1ncc(-c2ccc(-c3cc4cc(-c5cnc([C@@H]6CCCN6C(=O)[C@@H](NC(=O)OC)C(C)C)[nH]5)ccc4o3)cc2)[nH]1)C(C)C
EC50 (Hepatitis C virus): 27 nM

Structure (SMILES): CC[C@@H]1C(=O)N(C(C)=O)[C@H]1Oc1ccc(C(=O)O)cc1
half-life [9]: 8.6 h | K [10]: 6.7 10^3/M/s
